Reference: US8586747B2, “3,3-dimethyl tetrahydroquinoline derivatives” (Hoffmann-La Roche Inc., priority 2010, dated 2013)

Each compound was assayed on AMP-activated protein kinase (AMPK) (assay: ADP Quest assay for AMPK activators). Conditions: fold of AMPK activation to phosphorylate SAMS peptide without and with an activator at the concentration of 30 µM.
Type: biochemical
Set-up: key: fold AMPK activation with vs without activator at 30 µM
Procedure: ADP Quest™ Assay for AMPK Activators
This method evaluates AMP-activated protein kinase (AMPK) activity through detecting the accumulation of ADP product using an ADP Quest kit and determining the E30 values of the small molecular AMPK activators. ADP Quest kit (DiscoveRx, Fremont, Calif.) is stored at −20° C. before use. Before an experiment, thaw the kit (include assay buffer, ADP standard solution, reagent A and reagent B) and equilibrate to room temperature. Dispense the ADP Quest reagents into single-use aliquots and store at −20° C. The compound concentrations typically range from 0 µM to 100 µM by 2-fold dilution. AMP concentrations range from […] to 1 mM as the reference control. In an assay, thaw and equilibrate the assay buffer, reagent A and reagent B to room temperature for 30 minutes prior to use. Mix ATP, SAMS peptide substrate and compound, and place them into the 384-well assay plate. Add reagent A and B based on the assay kit protocol. Incubate the assay plate at room temperature for 30 minutes after addition the mixture followed by the addition of AMPK protein (Invitrogen, CA) to initiate the AMPK phosphorylation reaction. At the same time, reactions with AMPK activator AMP in the absence of enzyme is included as blank control. The reaction fluorescence signal is monitored and recorded on Envision in kinetic mode with the excitation wavelength of 530 nm and emission wavelength of 590 nm. The E30 value, defined as the fold of AMPK activation to phosphorylate SAMS peptide without and with an activator at the concentration of 30 µM, is calculated and analyzed using Prism 5.0.
`CC1(C)Cc2cc(C(=O)O)ccc2NC1c1ccccc1NS(=O)(=O)c1cccc(F)c1` (stereo not shown) [Example 222, 2-(2-(3-Fluorophenylsulfonamido)phenyl)-3,3-dimethyl-1,2,3,4-tetrahydroquinoline-6-carboxylic acid] gave an E30 of 2.09. `CN(C)CCNC(=O)c1cccc(C2Nc3ccc(C(=O)O)cc3CC2(C)C)c1` (stereo not shown) [Example 203, 2-(3-(2-(Dimethylamino)ethylcarbamoyl)phenyl)-3,3-dimethyl-1,2,3,4-tetrahydroquinoline-6-carboxylic acid] was tested, and the E30 was 1.53. For `CNS(=O)(=O)c1cccc(C2Nc3ccc(C(=O)O)cc3CC2(C)C)c1` (stereo not shown) [Example 228, 3,3-Dimethyl-2-(3-(N-methylsulfamoyl)phenyl)-1,2,3,4-tetrahydroquinoline-6-carboxylic acid], the E30 was 1.38. With `CC(C)(C)c1ccc(-c2cccc(C3Nc4ccc(F)c(C(=O)O)c4CC3(C)C)c2)cc1` (stereo not shown) [Example 151, 2-(4′-tert-Butyl-biphenyl-3-yl)-6-fluoro-3,3-dimethyl-1,2,3,4-tetrahydro-quinoline-5-carboxylic acid] the E30 was 1.66. `CN(C)C(=O)N(C)c1cccc(C2Nc3ccc(C(=O)O)cc3CC2(C)C)c1` (stereo not shown) [Example 30, 3,3-Dimethyl-2-[3-(trimethyl-ureido)-phenyl]-1,2,3,4-tetrahydro-quinoline-6-carboxylic acid] was tested, and the E30 was 1.45. With `CC1(C)Cc2cc(C(=O)O)ccc2NC1c1ccc(F)c(NC(=O)c2ccc(F)cc2Cl)c1` (stereo not shown) [Example 190, 2-(3-(2-Chloro-4-fluorobenzamido)-4-fluorophenyl)-3,3-dimethyl-1,2,3,4-tetrahydroquinoline-6-carboxylic acid] the E30 was 1.3. `Cc1cc(C2Nc3ccc(C(=O)O)cc3CC2(C)C)cc(N2CCOCC2)c1` (stereo not shown) [Example 63, 3,3-Dimethyl-2-(3-methyl-5-morpholin-4-yl-phenyl)-1,2,3,4-tetrahydro-quinoline-6-carboxylic acid] gave an E30 of 1.56. `CC1(C)Cc2cc(C(=O)O)ccc2NC1c1ccc(NS(=O)(=O)c2ccccc2)cc1` (stereo not shown) [Example 168, 3,3-Dimethyl-2-(4-(phenylsulfonamido)phenyl)-1,2,3,4-tetrahydroquinoline-6-carboxylic acid] was tested, and the E30 was 1.39. `CC1(C)Cc2cc(C(=O)O)ccc2NC1c1ccc(NC(=O)c2ccccn2)cc1` (stereo not shown) [Example 186, 3,3-Dimethyl-2-(4-(picolinamido)phenyl)-1,2,3,4-tetrahydroquinoline-6-carboxylic acid] was tested, and the E30 was 1.21. `CC1(C)Cc2cc(C(=O)O)ccc2NC1c1ccc(NS(=O)(=O)c2ccc(F)cc2)cc1` (stereo not shown) [Example 181, 2-(4-(4-Fluorophenylsulfonamido)phenyl)-3,3-dimethyl-1,2,3,4-tetrahydroquinoline-6-carboxylic acid] showed an E30 of 1.31. Compound `CC1(C)Cc2cc(C(=O)O)ccc2NC1c1cccc(N2CC(=O)NC2=O)c1` (stereo not shown) [Example 19, 2-[3-(2,4-Dioxo-imidazolidine-1-yl)-phenyl]-3,3-dimethyl-1,2,3,4-tetrahydro-quinoline-6-carboxylic acid] has an E30 of 1.38. Work on `CC1(C)Cc2cc(C(=O)O)ccc2NC1c1cccc(N2C(=O)OCC2Cc2ccccc2)c1` (stereo in doubt) [Example 124, 2-[3-((S)-4-Benzyl-2-oxo-oxazolidin-3-yl)-phenyl]-3,3-dimethyl-1,2,3,4-tetrahydro-quinoline-6-carboxylic acid] yielded an E30 of 1.34. Compound `CC(C)(C)c1ccc(-c2cccc(C3Nc4ccc(F)c(C(=O)NS(C)(=O)=O)c4CC3(C)C)c2)cc1` (stereo not shown) [Example 157, N-[2-(4′-tert-Butyl-biphenyl-3-yl)-6-fluoro-3,3-dimethyl-1,2,3,4-tetrahydro-quinoline-5-carbonyl]-methanesulfonamide] has an E30 of 1.36. Compound `CNC(=O)C(C)(C)Nc1cccc(C2Nc3ccc(C(=O)NS(C)(=O)=O)cc3CC2(C)C)c1` (stereo not shown) [Example 39, 2-[3-(6-Methanesulfonylaminocarbonyl-3,3-dimethyl-1,2,3,4-tetrahydro-quinolin-2-yl)-phenylamino]-2,N-dimethyl-propionamide] has an E30 of 1.36. `CC1(C)Cc2cc(Cl)cc(C(=O)O)c2NC1c1cccc(N2CCOCC2)c1` (stereo not shown) [Example 100, 6-Chloro-3,3-dimethyl-2-(3-morpholin-4-yl-phenyl)-1,2,3,4-tetrahydro-quinoline-8-carboxylic acid] was tested, and the E30 was 1.4. `CN1CCN(c2cccc(C3Nc4ccc(C(=O)O)cc4CC3(C)C)c2)C1=O` (stereo not shown) [Example 16, 3,3-Dimethyl-2-[3-(3-methyl-2-oxo-imidazolidin-1-yl)-phenyl]-1,2,3,4-tetrahydro-quinoline-6-carboxylic acid] gave an E30 of 1.59. For `CN1CCN(C(=O)Nc2cccc(C3Nc4ccc(C(=O)O)cc4CC3(C)C)c2)CC1` (stereo not shown) [Example 27, 3,3-Dimethyl-2-{3-[(4-methyl-piperazine-1-carbonyl)-amino]-phenyl}-1,2,3,4-tetrahydro-quinoline-6-carboxylic acid], the E30 was 1.24. `CC1(C)Cc2cc(C(=O)NS(=O)(=O)C3CC3)ccc2NC1c1cc(F)cc(F)c1` (stereo not shown) [Example 52, Cyclopropanesulfonic acid [2-(3,5-difluoro-phenyl)-3,3-dimethyl-1,2,3,4-tetrahydro-quinoline-6-carbonyl]-amide] showed an E30 of 1.35. Compound `CC1(C)Cc2cc(C(=O)O)ccc2NC1c1ccccc1` (stereo not shown) [Example 158, 3,3-Dimethyl-2-phenyl-1,2,3,4-tetrahydro-quinoline-6-carboxylic acid] has an E30 of 1.34. For `CC1(C)Cc2cc(C(=O)O)ccc2NC1c1cccc(C(=O)NS(=O)(=O)C2CC2)c1` (stereo not shown) [Example 176, 2-(3-(Cyclopropylsulfonylcarbamoyl)-phenyl)-3,3-dimethyl-1,2,3,4-tetrahydroquinoline-6-carboxylic acid], the E30 was 1.44. Compound `CC1(C)Cc2cc(C(=O)NS(C)(=O)=O)ccc2NC1c1ccc(N2CCOCC2)cc1` (stereo not shown) [Example 74, N-[3,3-Dimethyl-2-(4-morpholin-4-yl-phenyl)-1,2,3,4-tetrahydro-quinoline-6-carbonyl]-methanesulfonamide] has an E30 of 1.19. With `CNCCN(C)c1cccc(C2Nc3ccc(C(=O)O)cc3CC2(C)C)c1` (stereo not shown) [Example 120, 3,3-Dimethyl-2-{3-[methyl-(2-methylamino-ethyl)-amino]-phenyl}-1,2,3,4-tetrahydro-quinoline-6-carboxylic acid] the E30 was 1.5. For `CC1(C)Cc2cc(C(=O)NS(C)(=O)=O)ccc2NC1c1cc(F)cc(N2CCCC2=O)c1` (stereo not shown) [Example 77, N-{2-[3-fluoro-5-(2-oxo-pyrrolidin-1-yl)-phenyl]-3,3-dimethyl-1,2,3,4-tetrahydro-quinoline-6-carbonyl}-methanesulfonamide], the E30 was 1.42. In the case of `CC1(C)Cc2cc(C(=O)NS(=O)(=O)C3CC3)ccc2NC1c1cccc(N2CC(F)C2)c1` (stereo not shown) [Example 153, Cyclopropanesulfonic acid {2-[3-(3-fluoro-azetidin-1-yl)-phenyl]-3,3-dimethyl-1,2,3,4-tetrahydro-quinoline-6-carbonyl}-amide], the E30 is reported as 1.27. With `CC(C)(C)OC(=O)N1CC(NC(=O)c2cccc(C3Nc4ccc(C(=O)O)cc4CC3(C)C)c2)C1` (stereo not shown) [Example 207, 2-(3-(1-(Tert-butoxycarbonyl)azetidin-3-ylcarbamoyl)phenyl)-3,3-dimethyl-1,2,3,4-tetrahydroquinoline-6-carboxylic acid] the E30 was 1.32. Work on `COc1cc(C2Nc3ccc(C(=O)O)cc3CC2(C)C)cc(N2CCOCC2)c1` (stereo not shown) [Example 66, 2-(3-Methoxy-5-morpholin-4-yl-phenyl)-3,3-dimethyl-1,2,3,4-tetrahydro-quinoline-6-carboxylic acid] yielded an E30 of 1.42. `CC1(C)Cc2c(ccc(Cl)c2C(=O)O)NC1c1cccc(N2CCOCC2)c1` (stereo not shown) [Example 95, 6-Chloro-3,3-dimethyl-2-(3-morpholin-4-yl-phenyl)-1,2,3,4-tetrahydro-quinoline-5-carboxylic acid] gave an E30 of 1.56. For `CN(C(N)=O)c1cccc(C2Nc3ccc(C(=O)O)cc3CC2(C)C)c1` (stereo not shown) [Example 31, 3,3-Dimethyl-2-[3-(1-methyl-ureido)-phenyl]-1,2,3,4-tetrahydro-quinoline-6-carboxylic acid], the E30 was 1.33. `CC1(C)Cc2cc(C(=O)NS(C)(=O)=O)ccc2NC1c1ccc(F)c(N2CCOCC2)c1` (stereo not shown) [Example 59, N-[2-(4-Fluoro-3-morpholin-4-yl-phenyl)-3,3-dimethyl-1,2,3,4-tetrahydro-quinoline-6-carbonyl]-methanesulfonamide] was tested, and the E30 was 1.2. With `CC1(C)Cc2cc(C(=O)NS(=O)(=O)C3CC3)ccc2NC1c1cc(F)cc(C2CCCCC2)c1` (stereo not shown) [Example 70, Cyclopropanesulfonic acid [2-(3-cyclohexyl-5-fluoro-phenyl)-3,3-dimethyl-1,2,3,4-tetrahydro-quinoline-6-carbonyl]-amide] the E30 was 1.23. Work on `CC1(C)Cc2cc(C(=O)O)ccc2NC1c1cccc(NC(=O)N2CCOCC2)c1` (stereo not shown) [Example 21, 3,3-Dimethyl-2-{3-[(morpholine-4-carbonyl)-amino]-phenyl}-1,2,3,4-tetrahydro-quinoline-6-carboxylic acid] yielded an E30 of 1.42.
